Measured values from patent US8741911B2, “Raf inhibitor compounds” (Eli Lilly and Company, priority 2012, dated 2014).
Like-named read-outs stand apart in the source and are kept apart here.

Experiments:
M059K = test: CellTiter-Glo proliferation and viability assay; assay type: cell-based; details: Homo sapiens
A375res cells = test: CellTiter-Glo proliferation and viability assay in vemurafenib-resistant cells; assay type: cell-based, human; details: Homo sapiens, A375res cells
Ba/F3 c-Kit T670I = test: Ba/F3 c-Kit anti-proliferation assay; assay type: cell-based; details: Mus musculus, BaF3, Ba/F3 c-Kit T670I, read-out: Anti-proliferation activities (IC50)
Description: (§1) To further evaluate the test compound, it is tested against c-Kit mutations commonly occurring in melanoma and/or GIST. Ba/F3 cell line (from ATCC) are transfected with wild type (WT) c-Kit, c-Kit L576P (Willmore-Payne et al, Human Pathology, 2005, 36(5), 486; Willmore-Payne et al, Human Pathology, 2006, 37, 520), c-Kit K642E (Willmore et al, Am J Clin Pathol, 2004, 122(2), 206; Monsel et al, Oncogene, 2010, 29, 227), c-Kit T670I (Tamborini et al, Oncogene, 2006, 25, 6140), or c-Kit V654A (Tamborini et al, Oncogene, 2006, 25, 6140), respectively are established by retroviral transfection methods well known and used by those skilled in the art. The mutations are generated by polymerase chain reaction (PCR) mutagenesis and confirmed by automated sequencing of the PCR-amplified c-Kit expression construct. Ba/F3 stable cell lines are generated by transfecting with plasmid DNA. Expression of the appropriate c-Kit mutants is confirmed by Western blot analysis.
(§2) Wild type Ba/F3 cells are generally dependent on IL-3 for growth. After c-Kit transfection, these cells are grown in Ba/F3 ATCC recommended growth medium in the presence of stem cell factor (SCF), the ligand of c-Kit. The anti-proliferation activities of test compounds against these cells are tested in the presence of IL-3 or SCF.

Ba/F3 c-Kit L576P = test: Ba/F3 c-Kit anti-proliferation assay; assay type: cell-based; details: Mus musculus, BaF3, Ba/F3 c-Kit L576P, read-out: Anti-proliferation activities (IC50)
Description: as §1, §2

Ba/F3 c-Kit WT = test: Ba/F3 c-Kit anti-proliferation assay; assay type: cell-based; details: Mus musculus, BaF3, Ba/F3 c-Kit WT, read-out: Anti-proliferation activities (IC50)
Description: as §1, §2

Ba/F3 c-Kit K642E = test: Ba/F3 c-Kit anti-proliferation assay; assay type: cell-based; details: Mus musculus, BaF3, Ba/F3 c-Kit K642E, read-out: Anti-proliferation activities (IC50)
Description: as §1, §2

Ba/F3 c-Kit V654A = test: Ba/F3 c-Kit anti-proliferation assay; assay type: cell-based; details: Mus musculus, BaF3, Ba/F3 c-Kit V654A, read-out: Anti-proliferation activities (IC50)
Description: as §1, §2

Hep3B2.1-7 = test: CellTiter-Glo proliferation and viability assay; assay type: cell-based; details: Homo sapiens
[1] = system: phospho-MEK and phospho-ERK in SK-MeI-2 cells; test: Immunoblotting (Western Blot) analysis of phospho-MEK and phospho-ERK; assay type: cell-based, human; details: SK-MeI-2, Western Blot
Description: N-Ras mutations B-Raf wild type leads to MAPK activation through Raf proteins, particularly C-Raf.
Testing is carried out at doses of 0, and 11 serial dilutions ranging from 0.17 to 10000 nM. Protein lysates are generated by treatment of the cells with RIPA lysis buffer from Millipore. Western blotting analysis is performed substantially as described in Yadav et al, Molecular Carcinogenesis, 2011, 50: 346-52. Briefly, SDS-PAGE is performed on cell lysates containing 20 ug of total protein using 4-20% Novex® tri-glycine gradient gels (Invitrogen). Protein is transferred onto […] nitrocellulose membranes using NuPAGE® Transfer Buffer (Invitrogen) and 10% methanol at 100 V, 4° C. for 1 hr. Generally, the primary antibody is used at 1:1000 dilution, and secondary antibody at 1:20000 dilution. Proteins are detected using the Odyssey Infrared Imaging System (Li-COR Biosciences). Antibodies against ERK1/2, phospho-ERK1/2, phospho-MEK1/2, and actin are obtained from Cell Signaling Technology.

SW620 = test: CellTiter-Glo proliferation and viability assay; assay type: cell-based; details: Homo sapiens
NCI-H2170 = test: CellTiter-Glo proliferation and viability assay; assay type: cell-based; details: Homo sapiens
EB2 = test: CellTiter-Glo proliferation and viability assay; assay type: cell-based; details: Homo sapiens
MIA-PaCa-2 = test: CellTiter-Glo proliferation and viability assay; assay type: cell-based; details: Homo sapiens, read-out: Abs IC50
NCI-H1694 = test: CellTiter-Glo proliferation and viability assay; assay type: cell-based; details: Homo sapiens
PLC-PRF-5 = test: CellTiter-Glo proliferation and viability assay; assay type: cell-based; details: Homo sapiens
HCT-116 = test: CellTiter-Glo proliferation and viability assay; details: Homo sapiens
U-266 = test: CellTiter-Glo proliferation and viability assay; assay type: cell-based; details: Homo sapiens, read-out: Abs IC50
HCC70 = test: CellTiter-Glo proliferation and viability assay; assay type: cell-based; details: Homo sapiens
U-118-MG = test: CellTiter-Glo proliferation and viability assay; assay type: cell-based; details: Homo sapiens
SK-Mel-28 = test: CellTiter-Glo proliferation and viability assay; assay type: cell-based; details: Homo sapiens
HuH-7 = test: CellTiter-Glo proliferation and viability assay; assay type: cell-based; details: Homo sapiens, read-out: Rel IC50
NCI-H661 = test: CellTiter-Glo proliferation and viability assay; assay type: cell-based; details: Homo sapiens
H9 = test: CellTiter-Glo proliferation and viability assay; assay type: cell-based; details: Homo sapiens

## CNc1ncc2cc(-c3cc(NC(=O)NCCC(C)(C)C)c(F)cc3C)c(C)nc2n1 [Example 1, 1-(3,3-Dimethylbutyl)-3-(2-fluoro-4-methyl-5-(7-methyl-2-(methylamino)pyrido[2,3-d]pyrimidin-6-yl)phenyl)urea]
M059K; read-out: Abs IC50
  IC50: 15.1 nM
M059K; read-out: Rel IC50
  IC50: 1.01 nM
A375res cells
  IC50: 34 nM
Ba/F3 c-Kit T670I; IL-3
  IC50: 5920 nM
Ba/F3 c-Kit T670I; SCF
  IC50: 290 nM
Ba/F3 c-Kit L576P; IL-3
  IC50: 2080 nM
Ba/F3 c-Kit L576P; SCF
  IC50: 179 nM
Ba/F3 c-Kit WT; IL-3
  IC50: 2860 nM
Ba/F3 c-Kit WT; SCF
  IC50: 62 nM
Ba/F3 c-Kit K642E; IL-3
  IC50: 1200 nM
Ba/F3 c-Kit K642E; SCF
  IC50: 47 nM
Ba/F3 c-Kit V654A; IL-3
  IC50: 2940 nM
Ba/F3 c-Kit V654A; SCF
  IC50: 86 nM
Hep3B2.1-7; read-out: Abs IC50
  IC50: 0.8 nM
Hep3B2.1-7; read-out: Rel IC50
  IC50: 0.36 nM
[1]
  dose at which phospho-ERK activity is substantially eliminated: 370 nM
[1]; 0.17 to 10000 nM
  phospho-MEK and phospho-ERK inhibition: dose dependent phospho-MEK and phospho-ERK inhibition
SW620; SW-620, read-out: Abs IC50
  IC50: 2.86 nM
SW620; SW-620, read-out: Rel IC50
  IC50: 0.46 nM
NCI-H2170; read-out: Abs IC50
  IC50: 15.1 nM
NCI-H2170; read-out: Rel IC50
  IC50: 19.9 nM
EB2; read-out: Abs IC50
  IC50: > 20 nM
EB2; read-out: Rel IC50
  IC50: 0.5 nM
MIA-PaCa-2
  IC50: 1.09 nM
NCI-H1694; read-out: Abs IC50
  IC50: 15.1 nM
NCI-H1694; read-out: Rel IC50
  IC50: 16.3 nM
PLC-PRF-5; read-out: Abs IC50
  IC50: > 20 nM
PLC-PRF-5; read-out: Rel IC50
  IC50: 11.7 nM
HCT-116; HCT-116, read-out: Abs IC50
  IC50: 0.72 nM
HCT-116; HCT-116, read-out: proliferation and viability IC50
  IC50: 178 nM
U-266
  IC50: 1.1 nM
HCC70; read-out: Abs IC50
  IC50: > 20 nM
HCC70; read-out: Rel IC50
  IC50: > 20 nM
U-118-MG; read-out: Abs IC50
  IC50: 5.21 nM
U-118-MG; read-out: Rel IC50
  IC50: 0.76 nM
SK-Mel-28; SK-MEL-28, read-out: Abs IC50
  IC50: 0.04 nM
SK-Mel-28; SK-MEL-28, read-out: Rel IC50
  IC50: 0.03 nM
SK-Mel-28; SK-Mel-28, B-Raf V600E, melanoma, CellTiter-Glo, read-out: IC50
  IC50: 29 nM
HuH-7
  IC50: 0.13 nM
NCI-H661; read-out: Abs IC50
  IC50: > 20 nM
NCI-H661; read-out: Rel IC50
  IC50: 12.6 nM
H9; read-out: Abs IC50
  IC50: 0.33 nM
H9; read-out: Rel IC50
  IC50: 0.19 nM
